This is an account of results in patent US20060252825A1, “Crystal forms of {[(2r)-7-(2,6-dichlorophenyl)-5-fluoro-2,3-dihydro-1-benzofuran-2-yl]methyl}amine hydrochloride” (Wyeth, priority 2005, published 2006).

Values joined by “and” are separate entries in the source; they are usually repeats but may differ in a detail not shown here. Equal entries are not always repeated. Structures can show the parent of a compound that is named as a salt.

Holding throughout (assay type): physicochemical
Data set [1] is described as follows: Assessment of stability in water (slurry at 25° C., form identified by XRPD). The settings on record: slurried in water at 25° C.; for Form after 2 days / Form after 4 days: Table A; for Form after 2 days / Form after 4 days / Stability in water (overall summary): hydrochloride; for Stability in water (overall summary): summary of Tables A-D. On the procedure: Form I, Form II or a mixture thereof was slurried in water at 25° C. to assess stability. […] XRPD was used to identify crystalline form.

Data set [2] can be described thus: Solubility in water, gravimetric method. On the procedure: Solubility was measured using the gravimetric method by separately suspending Form I and Form II in water with stirring at room temperature for 6 hours.
Data set [3] in a line: Conversion of Form I to Form II by slurrying in water at 25° C. (XRPD). The settings on record: slurried in water at 25° C. with stirring. On the procedure:
Form I was slurried in water for 1 day and for 5 days at 25° C. with stirring.

The nature of data set [4]: Conversion of Form II to Form I by slurrying in t-butylmethyl ether (XRPD). The settings on record: slurried in t-butylmethyl ether for 4 days at room temperature. The source says:
Form II was slurried in t-butylmethyl ether for 4 days at room temperature. The resulting solid was characterized by XRPD as Form I.

Regarding `NC[C@H]1Cc2cc(F)cc(-c3c(Cl)cccc3Cl)c2O1` [50:50 I:II, {[(2R)-7-(2,6-dichlorophenyl)-5-fluoro-2,3-dihydro-1-benzofuran-2-yl]methyl}amine hydrochloride], the “Form after 2 days” value in data set [1] (XRPD) was “trace I”.
Regarding `NC[C@H]1Cc2cc(F)cc(-c3c(Cl)cccc3Cl)c2O1` [Form I, {[(2R)-7-(2,6-dichlorophenyl)-5-fluoro-2,3-dihydro-1-benzofuran-2-yl]methyl}amine hydrochloride], the solubility (commonly the concentration that dissolves in the medium under given conditions) at 6 h in data set [2] (water, thermodynamic from solid, suspended in water with stirring at room temperature for 6 hours, gravimetric) came out at 67 mg/mL. Moreover, in data set [1] (XRPD), the “Form after 2 days” value is listed as “I, trace II” and the “Form after 4 days” value is given as “Increased amount of II”. The “Form after 3 days” value in data set [1] (Table C, XRPD) is “mainly II, some I”. For the same compound, the “Stability in water (overall summary)” value in data set [1] is listed as “converted to Form II under most of the conditions tested”. In addition, the “Crystalline form after 1 day” value in data set [3] (1 day) is “substantial conversion of the solid from Form I to Form II”. For the same compound, the “Crystalline form after 5 days” value in data set [3] (5 days) was “no detectable amount of Form I”.
In the case of `NC[C@H]1Cc2cc(F)cc(-c3c(Cl)cccc3Cl)c2O1` [Form II, {[(2R)-7-(2,6-dichlorophenyl)-5-fluoro-2,3-dihydro-1-benzofuran-2-yl]methyl}amine hydrochloride], in data set [2] (inferred from water solubility of Forms I and II, hydrochloride), the “Relative thermodynamic stability based on solubility data” value is “thermodynamically more stable in water than Form I”. The Solubility-Water in data set [2] (suspended in water with stirring at room temperature for 6 hours, gravimetric, hydrochloride) is 51 mg/mL and 50 mg/mL. Moreover, in data set [1], the “Stability in water (overall summary)” value is “stable in water”. Moreover, in data set [4], the Resulting solid form result is reported as “Form I”.
For `NC[C@H]1Cc2cc(F)cc(-c3c(Cl)cccc3Cl)c2O1` [I seeded with II, {[(2R)-7-(2,6-dichlorophenyl)-5-fluoro-2,3-dihydro-1-benzofuran-2-yl]methyl}amine hydrochloride], in data set [1] (XRPD), the “Form after 2 days” value is listed as “increased amount of II” and the “Form after 4 days” value is listed as “increased amount of II”.
